Reference: patent publication US20210246128A1, “BICYCLE TOPOISOMERASE I INHIBITING COMPOUNDS, PROCESS FOR PREPARATION AND USE THEREOF” (Council of Scientific & Industrial Research, priority 2018, published 2021)
Where two headings read alike, the source gives them in different places.

Experiments:
[1] = test system: calf thymus (CT) DNA; experiment: Ethidium bromide (EtBr) displacement assay; type: binding; conditions: 1 μM EtBr, 5 nM CT DNA, 0-200 μM compound
[2] = test system: human colon carcinoma cell lines (HCT116); experiment: Cytotoxicity assay, HCT116; conditions: HCT-116, read-out: IC50 cytotoxicity HCT116
[3] = Caco-2 permeability (21 day culture of Caco-2 cell monolayer); type: in vitro ADME; conditions: human; for recovery at 120 min, 10 μM: Caco-2, pH 7.4, Caco-2
Experimental: 5 mL of 100 mM sodium pyruvate, 5 mL of 10× non-essential amino acids, 5 mL of penstrep were added to 100 mL of heat inactivated foetal bovine serum to 385 mL of DMEM aseptically and mixed thoroughly. One vial of Hank's balanced salt (Sigma-H1387) was dissolved in 900 mL of milli Q water; adjusted the pH to 7.4 and made up the volume to 1000 mL with the same. The solution was filter sterilized and stored at 4° C. Stock solution of test compound (10 mM) was prepared in DMSO. 10 mM stock was diluted with HBSS Buffer to a final concentration of 10 μM.
250 μL of DMEM was added to the basal compartment of 96 well multi-screen Caco-2 plate and seeded 12000 cells/well (0.16×10^6 cells/ml) in all the apical wells required and one well with only media as blank without cells, placed the Caco-2 plate in CO2 incubator at 37° C. for proliferation of cells.
On the day of assay, medium was removed and washed twice with HBSS Buffer and incubated with HBSS buffer for 30 min in an incubator and wells with TEER values >230 ohm·cm^2 were selected for the incubation. 75 μL of test compound was added to apical wells and 250 μL of HBSS buffer with 2% BSA was added to basal wells. 25 μL of basal samples was collected at 120 min and processed as stated below.
250 μL of test compound was added to basal wells and 75 μL of HBSS buffer with 2% BSA was added to apical wells. 25 μL of apical samples was collected at 120 min and processed as stated below.
Single point calibration curve in HBSS buffer with 2% BSA was used. Donor samples were diluted 1:1 with HBSS containing 2% BSA and receiver samples were diluted with 1.1 HBSS buffer and precipitated with 200 μL of acetonitrile containing internal standard and vortexed for 5 min @ 1000 rpm, centrifuged at 4000 rpm for 10 min. Finally 100 μL of supernatant was diluted with 200 μL of water and submitted for LC-MS/MS analysis.

[4] = Plasma stability assay; type: in vitro ADME; conditions: pH 7.4, 37° C., 1 μM
Experimental: The stock solution of 10 mM of test compound in DMSO was prepared and stored at 4° C. 25 μM stock of test compound was prepared in acetonitrile: water by diluting from 10 mM stock (i.e. 2.5 μL of 10 mM stock solution was added to 997.5 μL of acetonitrile: water (50:50). The frozen plasma was thawed at room temperature and centrifuged at 1400×RCF (relative centrifugal force) 4° C., for 15 minutes. Approximately 90% of the clear supernatant fraction was transferred to a separate tube and was used for the assay.
For 0 min samples, plasma was heat inactivated at 56° C. for 45 min. To 72 μL of heat inactivated plasma, 3 μL of 25 μM test compound was added. A 25 μL aliquot of the mixture was taken and crashed with 200 μL of acetonitrile containing internal standard and further processed along with other time points. For other time point samples, final working stock of 1 μM was prepared by diluting in plasma (i.e. 8 μL of 25 μM acetonitrile:water stock was added to 192 μL of plasma). 200 μL of plasma containing the test compound was incubated for 2 hrs at 37° C. in shaker water bath with gentle shaking. 25 μL aliquot of sample at 0, 15, 30, 60 and 120 min was precipitated immediately with 200 μL of acetonitrile containing internal standard and centrifuged at 4000×RCF, 4° C. for 20 minutes. 150 μL of supernatant was diluted with 150 μL of water and analyzed on LC-MS/MS.

[5] = Cytotoxicity assay, HEK293; conditions: human
[6] = test system: MCF7 cells; experiment: γH2AX assay (immunofluorescence confocal microscopy); type: cell-based, human; conditions: after washing out from media
Experimental: Quantification of comparative ability of CPT and 18 to form DSBs was quantified after 3 hours and 5 hours by measuring γH2AX intensity per nucleus after treatment and after the removal of 18 or CPT was obtained from immunofluorescence confocal microscopy. […] But CPT-induced γH2AX have a short half-life. […] (T. Furuta. J. Biol. Chem. 2003, 278, 20303-20312).

[7] = test system: TDP1−/− cells; experiment: Cytotoxicity assay, TDP1−/−; conditions: read-out: IC50 cytotoxicity TDP1−/−
Experimental: (§1) The percent inhibition of viability for each concentration of compound was calculated with respect to the control and IC50 (μM) values were estimated. Each point corresponds to the mean±S.D of at least three experiments in duplicates. Error bars represent SD (n=3).

[8] = Lipophilicity assay (octanol/buffer Log D); conditions: octanol / sodium phosphate buffer pH 7.4
[9] = test system: human ovarian adenocarcinoma cell lines (NIH:OVCAR-3); experiment: Cytotoxicity assay, NIH:OVCAR-3; conditions: OVCAR-3, read-out: IC50 cytotoxicity NIH:OVCAR-3
[10] = test system: TDP1+/+ MEFs; experiment: Cytotoxicity assay, TDP1+/+ MEFs; type: cell-based
Experimental: as §1

[11] = test system: noncancerous human embryonic kidney (HEK293) cells; experiment: Cytotoxicity assay, HEK293; conditions: read-out: IC50 cytotoxicity HEK293; HEK293 (noncancerous)
[12] = Solubility assay (pH 7.4 pION buffer, UV); type: physicochemical; conditions: pH 7.4 buffer, 18 hours incubation
Experimental: 5 μL of 20 mM DMSO stock from the stock plate was added to the reaction deep well plate containing 495 μL of pH 7.4 pION buffer (including DMSO control) respectively and the samples were mixed and incubated for 18 hours. The plate was sealed well during the incubation process. The DMSO content in the sample was <1.0%. The concentration in deep well plates was 200 μM. 4 μL of 20 mM stock (including DMSO control) was added to 996 μL of acetonitrile to prepare the working stock plate. 75 μL of working stock was added to 75 μL of blank buffer and read on spectrophotometer as reference plate at 240 nm. At the end of the incubation period, 100 μL of sample from storage plate was vacuum filtered using a filter plate. This step wets the filters and the filtrate was discarded. Another 200 μL of the sample from deep well plate was vacuum filtered in to a new filter collection plate. 75 μL of the filtrate from the filter collection plate was transferred to a UV sample plate. 75 μL of acetonitrile was added to this UV plate. The solution was mixed and the spectrum was read using the UV spectrophotometer at 240 nm. Plates were read on spectramax using SoftMax Pro software version 5.3.

[13] = test system: Caco-2 cell monolayer; conditions: cited from earlier work

SMILES | displacement of bound EtBr (DNA intercalation) [1] | IC50 [2] [nM] | recovery at 120 min, 10 μM ([3]; read-out: A to B % Recovery) [%] | recovery at 120 min, 10 μM ([3]; read-out: B to A % Recovery) [%] | Papp A→B at 120 min, 10 μM ([3]; pH 7.4, Caco-2, 10 μM, 120 min, read-out: Papp Apical to Basal) [×10⁻⁶ cm/s] | Papp B→A at 120 min, 10 μM ([3]; pH 7.4, Caco-2, 10 μM, 120 min, read-out: Papp Basal to Apical) [×10⁻⁶ cm/s] | Mean % remaining at 2 hrs in human Plasma [4] [%] | IC50 [5] [nM] | persistence of γH2AX foci / DSBs after removal of drug [6] | IC50 [7] [nM] | Log D @ pH 7.40 Mean [8] | IC50 [9] [nM] | IC50 [10] [nM] | IC50 [11] [nM] | Avg. Solubility (μg/mL) at pH 7.4 [12] [μg/mL] | Papp Apical to Basal [13] | Papp Basal to Apical [13] | IC50 ([7]; TDP1−/−) [nM]
COc1ccc(-c2ccc3ncc(-c4nnco4)c(NCCCn4ccnc4)c3c2)cc1 [Compound 18, N-(3-(1H-imidazol-1-yl)propyl)-6-(4-methoxyphenyl)-3-(1,3,4-oxadiazol-2-yl)quinolin-4-amine] | no displacement of fluorophore even at high concentration (200 μM) | 2340 | 33.2 | 44.2 | 7.42 | 11.6 | 93.34 | 8340 | persistent and less reversible DNA double-strand breaks (DSBs) | 1020 | 2.48 | 2350 |  |  |  |  |  | 
CC[C@@]1(O)C(=O)OCc2c1cc1n(c2=O)Cc2cc3ccccc3nc2-1 [Camptothecin, reference compound] |  |  |  |  |  |  | 15.70 |  | faster disappearance of γH2AX foci |  |  |  | 2800 ± 470 | 8750 ± 630 | 2.5 | 10.5 10^−6 cm/sec | 35.8 10^−6 cm/sec | 1570 ± 210
